Data published in patent US8993260B2, “Fluorescence-based viability staining method using a membrane permeable flourescent dye and membrane impermeable fluorescence quencher” (Charles River Laboratories, Inc., priority 2012, dated 2015).

Legend:
[1] = tested on: viable and non-viable E. coli; test: Viability staining of mixed viable/non-viable E. coli in solution: fluorescent probe and two PET quenchers; assay type: cell-based; conditions: 0.005 mM Oxazine 170 perchlorate, 0.4 mM p-Sulfonic calix[6]arene, 100 mM sodium ascorbate in PBS; about 5 min
Experimental: The viable and heat killed E. coli were preparations were prepared as described in Example 1. The heat killed E. coli suspension was then combined with the viable cell suspension and mixed by vortexing. The resulting cell suspension served as the viable and non-viable E. coli solution. A fluorescent probe-quencher stain was prepared as a solution consisting of 0.005 mM Oxazine 170 perchlorate (Sigma-Aldrich, St. Louis, Mo.), 0.4 mM p-Sulfonic calix[6]arene (TCI America, Portland, Oreg.), 100 mM Sodium ascorbate (Sigma-Aldrich, St. Louis, Mo.) in PBS. The viable and non-viable E. coli suspension was then diluted 1:1000 into the fluorescent probe-quencher solution to stain the cells. After incubation for approximately 5 minutes, a droplet of the stained cell solution was placed onto a microscope slide and imaged on a fluorescent microscope (Carl Zeiss, LLC, Thornwood, N.Y.). FIGS. 20A and 20B show a combined image of the viable and non-viable stained E. coli captured under phase contrast (FIG. 20A) as well as fluorescent conditions (excitation 575-625 nm, emission 660-710 nm) (FIG. 20B). The viable and non-viable cells were indistinguishable in phase contrast but under fluorescent conditions the viable cells were brightly fluorescent whereas the non viable cells were not.

[2] = tested on: viable and heat killed E. coli; test: Viability staining of E. coli captured on a membrane: fluorescent probe and quencher wash, fluorescence microscopy; assay type: cell-based; conditions: 0.005 mM Oxazine 170 perchlorate stain, then 10 mM sodium ascorbate wash
Experimental: Viable and non-viable E. coli cell fractions were prepared by picking a colony cultured on a conventional media plate and then transferring the cells into Phosphate Buffered Saline (PBS). The cells then were suspended by vortexing and then were further diluted in PBS to give a turbidity equivalent to a 1.0 McFarland standard. This stock solution served as the live cell fraction. An aliquot of the live cell fraction was transferred to a glass tube that was placed into a boiling water bath for about 15 minutes to heat kill the E. coli. The tube was removed from the bath and allowed to cool to room temperature. This heat killed suspension served as the dead cell fraction. A fluorescent stain solution was prepared as a 0.005 mM solution of Oxazine 170 perchlorate (Sigma-Aldrich, St. Louis, Mo.) in PBS containing a 1:100,000 dilution of 10% w/v 0.8 μm Sky Blue latex fluorescent particles (Spherotech, Lake Forest, Ill.). A separate quencher wash solution was prepared as a 10 mM Sodium ascorbate (Sigma-Aldrich, St. Louis, Mo.) solution in PBS. […] The cells then were imaged using a fluorescent microscope (Carl Zeiss, LLC—Thornwood, N.Y.) with an excitation of 575 nm-625 nm and measured emission of 660 nm-710 nm. […]

SMILES: O=C1O[C@H]([C@@H](O)CO)C([O-])=C1O.[Na+] [sodium ascorbate, Sodium Ascorbate]
- Permeation of the quencher through non-viable cell membranes and quenching of fluorescence [1]: permeated the non-viable cell membranes resulting in an effective quenching of fluorescence
- Permeation of the quencher into heat killed cells (quenching of fluorescent signal) ([2]; heat killed E. coli on 0.2 μm membrane): permeated
- Permeation of the quencher into viable cells ([2]; live E. coli on 0.2 μm membrane, ex 575-625 nm, em 660-710 nm): excluded from the viable cells

SMILES: O=S(=O)(O)c1cc2c(O)c(c1)Cc1cc(S(=O)(=O)O)cc(c1O)Cc1cc(S(=O)(=O)O)cc(c1O)Cc1cc(S(=O)(=O)O)cc(c1O)Cc1cc(S(=O)(=O)O)cc(c1O)Cc1cc(S(=O)(=O)O)cc(c1O)C2 [p-Sulfonic calix[6]arene, 4- Sulfocalix [6]arene]
- Permeation of the quencher through non-viable cell membranes and quenching of fluorescence [1]: permeated the non-viable cell membranes resulting in an effective quenching of fluorescence
